From EPA's ToxValDB 9.5 (doi:10.2903/j.efsa.2014.3692)
In brackets after ≈: the same amount, converted by molar mass.

Assays:
Colinus virginianus = conditions: for LD50: acute, oral, mortality
Rattus norvegicus = conditions: for LD50: acute, mortality
Apis mellifera = conditions: acute, mortality
Bibionidae = conditions: chronic/long-term; duration: 28 days
Canidae = conditions: reproduction developmental; duration: 90 days; Dog Other; mortality
Chironomus tentans = conditions: acute, mortality
Cyprinodon variegatus = conditions: mortality
Mus musculus = conditions: acute; oral; mortality

CC(O)c1ccc(C(F)(F)F)nc1 (centres undefined) [1-(6-(Trifluoromethyl)pyridin-3-yl)ethanol]
LD50 (Colinus virginianus): 1040 mg/kg | LD50 (Rattus norvegicus): 2000 mg/kg

CC(c1ccc(C(F)(F)F)nc1)S(C)(=O)=NC#N (centres undefined) [Sulfoxaflor]
NOAEL (Anas platyrhynchos; reproductive, reproduction): 25.9 mg/kg-day | LD50 (Anas platyrhynchos; short-term, oral, feed, mortality): > 1050 mg/kg-day | LD50 (Apis mellifera; duration: 48 hours, oral, unspecified): 0.146 µg/piece | LD50 (Apis mellifera; duration: 72 hours, dermal): 0.379 µg/piece | NOEC (Bibionidae): 0.0384 mg/L | NOAEL (Canidae): 6.63 mg/kg-day | LC50 (Chironomus tentans; duration: 96 hours): 0.622 µg/mL (≈ 2.24 µM) | LC50 (Chironomus tentans; duration: 10 days): 0.119 mg/kg | LD50 (Colinus virginianus; diet): > 1150 mg/kg-day | LD50 (Colinus virginianus): 676 mg/kg | NOAEL (Colinus virginianus; reproduction developmental, reproduction): 84.4 mg/kg-day | LC50 (Cyprinodon variegatus; acute, duration: 96 hours): 266 µg/mL (≈ 959 µM) | NOEC (Cyprinodon variegatus; chronic/long-term, duration: 38 days): 1.21 mg/L | LD50 (Mus musculus): 750 mg/kg | LC50 (Neomysis kadiakensis; acute, duration: 96 hours, mortality): 0.643 µg/mL (≈ 2.32 µM) | NOEC (Neomysis kadiakensis; chronic/long-term, duration: 28 days, reproduction): 0.114 mg/L | LD50 (Rattus norvegicus; oral): 1000 mg/kg | NOAEL (Rattus norvegicus; chronic, duration: 2 years, other): 4.24 mg/kg-day | NOAEL (Rattus norvegicus; repeat dose other, neurology): 25 mg/kg-day | NOAEL (Rattus norvegicus; subchronic, duration: 90 days, oral, histopathology: nonneoplastic): 6.36 mg/kg-day | LC50 (Tagia sp.; acute, duration: 14 days, mortality): 0.885 mg/kg | NOEC (Tagia sp.; chronic/long-term, duration: 8 weeks): 0.1 mg/kg
